Test results as given in patent publication US20050101674A1, “PPMP as a ceramide catabolism inhibitor for cancer treatment” (priority 2003, published 2005).
Where two headings read alike, the source gives them in different places.

Legend:
[1] = test system: PC-3 prostate cancer cells; test: DIMSCAN cytotoxicity assay in PC-3 cells; assay type: cell-based; conditions: PC-3, combined with 4-HPR, +96 h
Description: (§1) In the following examples, the DIMSCAN assay is a cell survival assay, not merely an apoptosis assay, and therefore reflects cancer cell killing due to both apoptosis and necrosis. DIMSCAN correlates directly with more traditional clonogenic assays. Moreover, DIMSCAN drug resistance profiles of cell lines correlate with prior patient therapy. DIMSCAN has successfully predicted clinical activity in high-risk neuroblastoma patients for the following new agents: 13-cis-retinoic acid, BSO+L-PAM, and fenretinide. Cytotoxicity assays are performed in 96 well microplates using a semi automated Digital Image Microscopy (DIMSCAN) system that has a dynamic range of greater than 4-5 logs of cell kill. Briefly, following incubation with study drugs, fluorescein diacetate [10 μg/ml (a vital stain)] is added to the microplate and incubated for twenty minutes. Eosin-Y (800 μg/ml) is then added to quench background fluorescence in the medium and non-viable cells. The plates are then read on an inverted microscope with the relative fluorescence of each well determined by the video imaging system software designed for the DIMSCAN system. We have done comparison studies and have shown that the relative fluorescent values obtained by DIMSCAN correlate to cell density (standard counts by trypan blue exclusion) and clonogenicity assays. […]

[2] = test system: SK-N-RA neuroblastoma cells; test: DIMSCAN cytotoxicity assay in SK-N-RA cells; assay type: cell-based; conditions: combined with 4-HPR, +96 h
Description: as §1, with “system.” for “system. We have done comparison studies and have shown that the relative fluorescent values obtained by DIMSCAN correlate to cell density (standard counts by trypan blue exclusion) and clonogenicity assays.”
Survival fraction was measured using a digital imaging fluorescence-based microscopy assay (DIMSCAN) with approximately 5 log sensitivity. […]

[3] = test system: PC-3 prostate cancer cells; test: Ceramide by [3H]-palmitic acid labeling and thin-layer chromatography, PC-3; conditions: PC-3, drug 10 μM, +24 h
Method: Lipids were assayed by labeling with [^3H]-palmitic acid and thin-layer chromatography at +24 h. […] Synergy assayed by Combination Index (C.I.): synergy, C.I.<1; additive, C.I.=1; antagonism, C.I.>1. Statistical analysis is by student's t-test.

[4] = test system: SK-N-RA neuroblastoma cells; test: Ceramide and glucosylceramide levels by [3H]-palmitic acid labeling and thin-layer chromatography, SK-N-RA; assay type: cell-based; conditions: for 4-HPR-induced glycosylceramide increase: FIG. 9 right panel; for 4-HPR-induced ceramide level / 4-HPR-induced glucosylceramide level: with 4-HPR 10 μM
Method: Assays were performed at +24 h.
SK-N-RA neuroblastoma cells were exposed to drugs at 10 μM concentrations for the time indicated.

[5] = test system: normal fibroblasts, peripheral blood mononuclear cells, EBV-immortalized lymphoid cell line; test: 4-HPR ceramide in normal and non-transformed cells; assay type: cell-based; conditions: in vitro
Description: Accordingly, the ability of 4-HPR to increase ceramide by de novo synthesis is most likely a malignancy (transformed phenotype)-specific event. Further, high-dose 4-HPR will have a favorable therapeutic index in vivo. Moreover, second agents that inhibit ceramide catabolism will also have a favorable therapeutic index in combination with 4-HPR, as normal tissues will not increase ceramide in response to 4-HPR.

[6] = test system: variety of cancer cell lines; conditions: cancer cell lines in vitro; cited from earlier work
[7] = pediatrics, oral, cited from earlier work
[8] = low-dose 4-HPR; cited from earlier work
[9] = test system: ceramide synthase; test: Direct assay of enzymatic activity, ceramide synthase; assay type: biochemical
Description: (§2) We have determined in solid tumor and ALL cell lines in vitro, that the ceramide increased by 4-HPR treatment was derived from de novo synthesis.

[10] = test system: serine palmitoyltransferase; test: Direct assay of enzymatic activity, serine palmitoyltransferase; assay type: biochemical
Description: as §2

[11] = test system: two neuroblastoma cell lines; test: Reactive oxygen species in neuroblastoma cell lines; assay type: cell-based
Description: (§3) 4-HPR has been reported to increase Reactive Oxygen Species (ROS) in certain, but not all, solid tumor cell lines and leukemia cell lines in vitro as a mechanism of cytotoxicity. […] We, therefore, have explored alternative mechanisms of 4-HPR cytotoxicity.

[12] = adults, high-dose oral; cited from earlier work
[13] = test system: six pediatric ALL cell lines; test: 4-HPR and D,L-threo-PPMP cytotoxicity in ALL cell line panel; assay type: cell-based
[14] = Continuous venous infusion (c.i.v.) of 4-HPR in rats; assay type: in vivo
Description: Utilizing intravenous formulations, we have directly tested continuous venous infusion (c.i.v.) in rats. […] Accordingly, the anti-tumor activity of 4-HPR will be increased by other agents which modulate the metabolism of ceramide, such as inhibitors of glucosylceramide synthase and 1-O-acylceramide synthase.

[15] = test system: cell lines of neuroblastoma, PNET/Ewing's sarcoma, breast and lung cancer; test: 4-HPR ceramide increase in tumor cell lines; assay type: cell-based
Description: as §3

[16] = test system: normal fibroblasts, bone marrow myeloid progenitors, peripheral blood mononuclear cells, EBV-immortalized lymphoblastoid cell line; test: 4-HPR cytotoxicity in normal and non-malignant cells; assay type: cell-based; conditions: doses cytotoxic to cancer cell lines in vitro
Description: Having established the potential of high-dose 4-HPR to treat resistant neuroblastoma, in order to investigate the therapeutic index of 4-HPR, we examined the cytotoxicity of 4-HPR in normal and non-malignant cell lines in vitro. […] Accordingly, 4-HPR cytotoxicity is most likely a malignancy-specific event, and high-dose 4-HPR may have an acceptable therapeutic index in vivo.

[17] = Plasma levels after intravenous formulations of 4-HPR; assay type: in vivo
[18] = test system: NALL-1; test: DIMSCAN cytotoxicity, ALL cell line NALL-1; assay type: cell-based; conditions: 4-HPR+PPMP 1:1, +96 hours
Description: (§4) In the following examples, the DIMSCAN assay is a cell survival assay, not merely an apoptosis assay, and therefore reflects cancer cell killing due to both apoptosis and necrosis. DIMSCAN correlates directly with more traditional clonogenic assays. Moreover, DIMSCAN drug resistance profiles of cell lines correlate with prior patient therapy. DIMSCAN has successfully predicted clinical activity in high-risk neuroblastoma patients for the following new agents: 13-cis-retinoic acid, BSO+L-PAM, and fenretinide. Cytotoxicity assays are performed in 96 well microplates using a semi automated Digital Image Microscopy (DIMSCAN) system that has a dynamic range of greater than 4-5 logs of cell kill. Briefly, following incubation with study drugs, fluorescein diacetate [10 μg/ml (a vital stain)] is added to the microplate and incubated for twenty minutes. Eosin-Y (800 μg/ml) is then added to quench background fluorescence in the medium and non-viable cells. The plates are then read on an inverted microscope with the relative fluorescence of each well determined by the video imaging system software designed for the DIMSCAN system. We have done comparison studies and have shown that the relative fluorescent values obtained by DIMSCAN correlate to cell density (standard counts by trypan blue exclusion) and clonogenicity assays. The present invention is explained in greater detail in the following non-limiting examples.
(§5) Assayed by DIMSCAN at +96 hours. •=4-HPR; ▪=PPMP; □=4-HPR+PPMP; (1:1 molar ratio).

[19] = test system: MOLT-3; test: DIMSCAN cytotoxicity, ALL cell line MOLT-3; assay type: cell-based; conditions: MOLT-3, 4-HPR+PPMP 1:1 molar ratio, +96 hours
Description: as §1

[20] = test system: SMS-SB; test: DIMSCAN cytotoxicity, ALL cell line SMS-SB; assay type: cell-based; conditions: 4-HPR+PPMP 1:1, +96 hours
Description: as §4, §5

[21] = test system: intact cells; conditions: in intact cells; cited from earlier work
[22] = test system: ALL cell lines; test: Glucosylceramide and ceramide in ALL cell lines; conditions: ALL cell lines examined
[23] = test system: MOLT-4; test: DIMSCAN cytotoxicity, ALL cell line MOLT-4; assay type: cell-based; conditions: MOLT-4, 4-HPR+PPMP 1:1 molar ratio, +96 hours
Description: as §1

[24] = test system: CEM; test: DIMSCAN cytotoxicity, ALL cell line CEM; assay type: cell-based; conditions: 4-HPR+PPMP 1:1 molar ratio, +96 hours
Description: as §1

[25] = test system: NALM-6; test: DIMSCAN cytotoxicity, ALL cell line NALM-6; assay type: cell-based; conditions: NALM-6, 4-HPR+PPMP 1:1 molar ratio, +96 hours
Description: as §1

[26] = test system: MCF-7/tet breast cancer cells
Method: MCF-7/tet breast cancer cells exposed to ethanol (controls), 4-HPR(H) or 4-HPR+safingol (3:1 ratio)(H+S), without or with preincubation with L-cycloserine (2 mM)(+C) and assayed by DIMSCAN assay at +96 hrs. 4-HPR (•); 4-HPR/L-cycloserine (O); 4-HPR/safingol (3:1)(▾); 4-HPR/safingol/L-cycloserine (∇); L-cycloserine (2 mM) (□).

[27] = test system: solid tumor and ALL cell lines; test: Effect of de novo ceramide synthesis inhibitors on 4-HPR-induced ceramide; assay type: cell-based; conditions: in vitro
Description: as §2

[28] = test system: neuroblastoma cell lines; test: Toxicity of de novo ceramide synthesis inhibitors to neuroblastoma cell lines; assay type: cell-based
[29] = rodents, x 10 days; cited from earlier work
[30] = test system: Ehrlich ascites tumor cells xenografts; conditions: in vivo; cited from earlier work
[31] = in vivo; cited from earlier work
[32] = test system: human neuroblastoma murine xenograft; test: Human neuroblastoma murine xenograft models; assay type: in vivo; conditions: combined with 4-HPR

With CCCCCCCCCCCCCCCC(=O)NC(CN1CCOCC1)C(O)c1ccccc1 (single isomer, unassigned) [D-threo-PPMP, D-threo-stereoisomer of 1-phenyl-2-palmitoylamino-3-morpholino-1-propanol] the “Combination Index (C.I.) of cytotoxic synergy with 4-HPR” value [1] was < 1, the “synergy of 4-HPR cytotoxicity (in words)” value [2] was “synergizes 4-HPR cytotoxicity more potently than does L-threo-PPMP” and the “ceramide in 4-HPR-treated cells” value [3] was “increased ceramide”. For the same compound, the 4-HPR-induced ceramide ([4]; drugs at 10 μM, FIG. 9 left panel, preliminary) was “increased 4-HPR-induced ceramide more than did L-threo-PPMP” and the 4-HPR-induced glycosylceramide increase ([4]; drugs at 10 μM, preliminary) was “prevented”.

For CC1=C(/C=C/C(C)=C/C=C/C(C)=C/C(=O)Nc2ccc(O)cc2)C(C)(C)CCC1 [4-HPR, N-(4-hydroxyphenyl)retinamide], the “ceramide in normal and non-transformed cells” value [5] is given as “only minimally increased ceramide”, the “4-HPR concentrations that are cytotoxic” value [6] is given as 1 to 12 µM and the “maximally tolerated dose (MTD)” value ([7]; 7 days every 3 weeks) is given as 2475 mg/m^2/day. The systemic toxicity ([7]; at MTD) was “minimal systemic toxicity”, the “reduction in premalignant oral lesions (leukoplakia)” value [8] was 30% and the ceramide synthase activity [9] was “stimulated the activities”. For the same compound, the serine palmitoyltransferase activity [10] was “stimulated the activities”, the “Reactive Oxygen Species (ROS)” value [11] was “increased ROS” and the “recommended 'practical' dose for Phase II studies” value [12] was 1800 mg/m^2/day. For the same compound, the 4-HPR cytotoxicity ([13]; all six tested ALL cell lines in vitro) was “multi-log cytotoxicity”, the “levels of 4-HPR in plasma and tissues” value [14] was “high, sustained levels” and the increase of ceramide ([15]; dose- and time-dependent, in vitro, 'up to') was “up to 13 fold”. The “time at which ceramide increase began” value ([15]; post exposure) was “less than 2 hrs”, the “toxicity to normal and non-malignant cells” value [16] was “minimally toxic” and the ceramide level ([4]; 4-HPR 10 μM alone, +24 h) was “modestly increased”. For the same compound, the systemic toxicity ([17]; dog, in vivo, iv) was “minimal systemic toxicity” and the 4-HPR plasma levels ([17]; intravenous formulations, rodent and canine models) was 50 to 150 µM.

For CCCCCCCCCCCCCCCC(=O)NC(CN1CCOCC1)C(O)c1ccccc1 [D,L-erythro-PPMP], the 4-HPR-induced ceramide level ([4]; +24 h) was “further increased” and the 4-HPR-induced glucosylceramide level ([4]; +24 h) was “did not affect”.

For CCCCCCCCCCCCCCCC(=O)NC(CN1CCOCC1)C(O)c1ccccc1 [D,L-threo-PPMP, D,L-threo-(1-phenyl-2-hexadecanoylamino-3-morpholino-1-propanol)], the “Combination Index (C.I.)” value ([18]; NALL-1, 3 μM) was > 1, the “Combination Index (C.I.)” value ([18]; NALL-1, 6 μM) was 1 and the “Combination Index (C.I.)” value ([18]; NALL-1, 9 μM) was < 1. The “Combination Index (C.I.)” value [19] was < 1, the “Combination Index (C.I.)” value ([20]; 3 μM) was > 1 and the “Combination Index (C.I.)” value ([20]; 6 μM) was > 1. The “Combination Index (C.I.)” value ([20]; 9 μM) was 1, the “activity relative to PDMP” value [21] was 10-20 times and the ceramide [22] was “increased ceramide”. For the same compound, the glucosylceramide formation [22] was “decreased glucosylceramide formation”, the “Combination Index (C.I.)” value [23] was < 1 and the “number of ALL cell lines in which 4-HPR cytotoxicity was synergized” value ([13]; pediatric ALL cell lines) was “four of six”. For the same compound, the “synergy of 4-HPR cytotoxicity (in words)” value [2] was “more potently”, the “Combination Index (C.I.)” value [24] was 1 and the “Combination Index (C.I.)” value [25] was < 1. The 4-HPR-induced ceramide level ([4]; +24 h) was “even more strongly increased” and the 4-HPR-induced glucosylceramide level ([4]; +24 h) was “prevented glucosylceramide formation”.

In the case of N[C@H]1CONC1=O [L-cycloserine], the “effect on 4-HPR-induced ceramide” value [26] is reported as “prevented ceramide increase”, the “effect on ceramide increase caused by 4-HPR treatment” value [27] is reported as “prevented the increase of ceramide” and the “toxicity as single agents” value [28] is reported as “proved toxic of themselves”.

In the case of CCCCCCCCCCCCCCCC(=O)N[C@@H](CN1CCOCC1)[C@@H](O)c1ccccc1 [L-threo-PPMP], the 4-HPR-induced glycosylceramide increase ([4]; drugs at 10 μM, preliminary) is reported as “did not”.

For CCCCCCCCCC(=O)NC(CN1CCOCC1)C(O)c1ccccc1 (stereo not drawn) [PDMP, 1-phenyl-2-[decanoylamino]-3; morpholino-1-propanol], the well tolerated dose [29] is listed as ≤ 120 mg/kg/day, the anti-tumor effect [30] is listed as “cures” and the half-life [31] is listed as “approximately 1 hour”.

With CCCCCCCCCCCCCCC[C@H](O)[C@@H](N)CO [safingol, L-threo-dihydrosphingosine] the “effect on anti-tumor activity of 4-HPR” value [32] was “significantly increase the anti-tumor activity of 4-HPR”.

With fumonisin B the “effect on ceramide increase caused by 4-HPR treatment” value [27] was “prevented the increase of ceramide” and the “toxicity as single agents” value [28] was “proved toxic of themselves”.
